Experimental data taken from US8039481B2, “Tetrahydrofuran derivatives for use as inhibitors of matrix metalloproteinases” (Sanofi-Aventis, priority 2005, dated 2011).

Legend:
Type in all cases: biochemical
[1] = target: catalytic domain of human gelatinase-A (MMP-9) (Homo sapiens, UniProt P14780); assay: Enzymatic activity of the catalytic domain of human gelatinase-A (MMP-9), fluorogenic substrate
Protocol: Determination of the Enzymatic Activity of the Catalytic Domain of Human Gelatinase-A (MMP-9)
Activation of the proenzyme:
(§1) 2 parts by volume of proenzyme were incubated with 1 part by volume of APMA solution at 37° C. for 4 hours. The APMA solution was prepared from a 10 mmol/l p-aminophenylmercuric acetate solution in 0.1 mmol/l NaOH by dilution with 3 parts by volume of Tris/HCl buffer pH 7.5 (see below). The pH was adjusted to between 7.0 and 7.5 by adding 1 mmol/l HCl. After activation of the enzyme it was diluted with the Tris/HCl buffer to a concentration of 4.2 mU/ml.
(§2) The enzymic activity was measured by incubating 10 μl of enzyme solution with 10 μl of a 3% strength (v/v) buffered dimethyl sulfoxide solution (reaction 1) for 15 minutes. The enzyme inhibitor activity was measured by incubating 10 μl of enzyme solution with 10 μl of a 3% strength (v/v) buffered dimethyl sulfoxide solution which contained the enzyme inhibitor (reaction 2).
The enzymic reaction both in the case of reaction 1 and in the case of reaction 2 was followed after addition of 10 μl of a 3% strength (v/v) aqueous dimethyl sulfoxide solution which contained 0.15 mmol/l of the substrate by fluorescence spectroscopy (328 nm (extinction)/393 nm (emission)).
The enzymic activity has been presented as increase in extinction/minute.
The effect of the inhibitor was calculated as percentage inhibition by the following formula: % inhibition=100−[(increase in extinction/minute in reaction 2)/(increase in extinction/minute in reaction 1)×100].
(§3) The IC50, which is the concentration of inhibitor which is necessary for 50% inhibition of the enzymic activity, was determined graphically by plotting the percentage inhibitions at various inhibitor concentrations.
(§4) The buffer solution contained 0.05% Brij (Sigma, Deisenhofen, Germany) and 0.1 mol/l Tris/HCl, 0.1 mol/l NaCl, 0.01 mol/l CaCl2 (pH=7.5). The enzyme solution contained 4.2 mU/ml of the enzyme domain. The substrate solution contained 0.15 mmol/l of the fluorogenic substrate (7-methoxycoumarin-4-yl)acetyl-Pro-Leu-Gly-Leu-3-(2′,4′-dinitrophenyl)-L-2,3-diaminopropionyl-Ala-Arg-NH2 (Bachem, Heidelberg, Germany).

[2] = target: catalytic domain of human gelatinase-A (MMP-2) (Homo sapiens, UniProt P08253); assay: Enzymatic activity of the catalytic domain of human gelatinase-A (MMP-2), fluorogenic substrate
Protocol: Determination of the Enzymatic Activity of the Catalytic Domain of Human Gelatinase-A (MMP-2)
as §1, with “Activation of the proenzyme: 2” for “2”, “0.5” for “4”, “0.83 μg/ml.” for “4.2 mU/ml.”
as §2
The enzymic reaction both in the case of reaction 1 and in the case of reaction 2 was followed after addition of 10 μl of a 3% strength (v/v) aqueous dimethyl sulfoxide solution which contained 0.3 mmol/l of the substrate by fluorescence spectroscopy (328 nm (extinction)/393 nm (emission)).
The enzymic activity has been presented as increase in extinction/minute. The effect of the inhibitor was calculated as percentage inhibition by the following formula: % inhibition=100−[(increase in extinction/minute in reaction 2)/(increase in extinction/minute in reaction 1)×100].
as §3
as §4, with “0.83 μg/ml” for “4.2 mU/ml”, “0.3” for “0.15”

[3] = target: T1, catalytic domain of human stromelysin (MMP-3) (Homo sapiens, UniProt P08254); assay: Enzymatic activity of the catalytic domain of human stromelysin (MMP-3), fluorogenic substrate
T1 construct: Preparation and determination of the enzymatic activity of the catalytic domain of human stromelysin (MMP-3); made in house
Protocol: Preparation and determination of the enzymatic activity of the catalytic domain of human stromelysin (MMP-3) and of neutrophil collagenase (MMP-8). The two enzymes stromelysin (MMP-3) and neutrophil collagenase (MMP-8) were prepared by the method of Ye et al. (Biochemistry; 31 (1992) pages 11 231-11 235). The enzymic activity or the effect of the enzyme inhibitor was measured by incubating 10 μl of enzyme solution with 10 μl of a 3% strength (v/v) buffered dimethyl sulfoxide solution which contained the enzyme inhibitor where appropriate, for 15 minutes. After addition of 10 μl of a 3% strength (v/v) aqueous dimethyl sulfoxide solution which contained 1 mmol/l of the substrate, the enzymic reaction was followed by fluorescence spectroscopy (328 nm (ex)/393 nm(em)).
The enzymic activity is presented as increase in extinction/minute. The IC50 values listed in Table 2 were determined as the inhibitor concentrations leading in each case to 50% inhibition of the enzyme.
The buffer solution contained 0.05% Brij (Sigma, Deisenhofen, Germany) and 0.1 mol/l Tris/HCl, 0.1 mol/l NaCl, 0.01 mol/l CaCl2 and 0.1 mol/l piperazine-N,N′-bis[2-ethanesulfonic acid] (pH=7.5).
The MMP-3 enzyme solution contained 2.3 μg/ml and the MMP-8 enzyme solution 0.6 μg/ml of one of the enzyme domains prepared by the method of Ye et al. The substrate solution contained 1 mmol/l of the fluorogenic substrate (7-methoxycoumarin-4-yl)acetyl-Pro-Leu-Gly-Leu-3-(2′,4′-dinitrophenyl)-L-2,3-diaminopropionyl-Ala-Arg-NH2 (Bachem, Heidelberg, Germany).

Sequence of catalytic domain of human gelatinase-A (MMP-2) (P08253 110-465 limits assumed): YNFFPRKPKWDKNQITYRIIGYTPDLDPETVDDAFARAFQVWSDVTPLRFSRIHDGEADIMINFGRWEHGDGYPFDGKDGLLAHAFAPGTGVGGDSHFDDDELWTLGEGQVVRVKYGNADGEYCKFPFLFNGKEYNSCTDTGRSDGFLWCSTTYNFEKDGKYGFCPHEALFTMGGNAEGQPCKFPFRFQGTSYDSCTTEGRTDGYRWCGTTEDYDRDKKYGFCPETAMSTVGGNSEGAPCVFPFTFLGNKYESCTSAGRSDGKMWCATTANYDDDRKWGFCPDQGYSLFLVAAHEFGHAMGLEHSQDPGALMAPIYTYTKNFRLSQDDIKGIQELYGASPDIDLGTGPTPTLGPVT
T1 sequence (P08254 100-272 limits assumed): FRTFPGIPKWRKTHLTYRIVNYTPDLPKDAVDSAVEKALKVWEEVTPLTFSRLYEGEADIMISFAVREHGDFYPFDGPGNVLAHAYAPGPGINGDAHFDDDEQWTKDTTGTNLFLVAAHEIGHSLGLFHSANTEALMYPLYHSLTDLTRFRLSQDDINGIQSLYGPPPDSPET
Sequence of catalytic domain of human gelatinase-A (MMP-9) (P14780 107-444 limits assumed): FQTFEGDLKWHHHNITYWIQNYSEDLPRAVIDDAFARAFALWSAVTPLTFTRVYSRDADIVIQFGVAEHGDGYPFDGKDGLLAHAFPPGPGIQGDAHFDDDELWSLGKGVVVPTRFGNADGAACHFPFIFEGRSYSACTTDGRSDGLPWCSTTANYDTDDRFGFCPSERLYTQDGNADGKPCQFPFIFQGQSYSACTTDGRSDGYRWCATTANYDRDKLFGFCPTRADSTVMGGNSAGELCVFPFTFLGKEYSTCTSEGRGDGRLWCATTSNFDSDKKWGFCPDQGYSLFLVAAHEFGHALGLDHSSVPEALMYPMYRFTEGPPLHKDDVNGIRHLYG

SMILES	IC50 [1]	IC50 [2]	IC50 [3]
O=C(O)C1C2CCOC2CCN1S(=O)(=O)c1ccc(-c2ccc(Cl)cc2)cc1 (stereo not drawn) [Example 6, 5-(4′-chlorobiphenyl-4-sulfonyl)octahydrofuro[3,2-c]pyridine-4-carboxylic acid]	2200 nM	38 nM	3500 nM
O=C(NO)C1C2CCOC2CCN1S(=O)(=O)c1ccc(-c2ccc(Cl)cc2)cc1 (stereo not drawn) [Example 7, 5-(4′-chlorobiphenyl-4-sulfonyl)octahydrofuro[3,2-c]pyridine-4-(N-hydroxy)-carboxamide]	2.4 nM	1.7 nM	29 nM
O=C(NO)[C@H]1[C@H]2CCO[C@H]2CCN1S(=O)(=O)c1ccc(-c2ccc(Cl)cc2)cc1 [Example 8]	1.5 nM	0.8 nM	13 nM
O=C(NO)[C@@H]1[C@@H]2CCO[C@@H]2CCN1S(=O)(=O)c1ccc(-c2ccc(Cl)cc2)cc1 [Example 9]	120 nM	71 nM	1100 nM
O=C(O)C1C2CCOC2CCN1S(=O)(=O)c1ccc(Oc2ccc(F)cc2)cc1 (stereo not drawn) [Example 10, 5-[4-(4-fluorophenoxy)benzenesulfonyl]octahydrofuro[3,2-c]pyridine-4-carboxylic acid]	2500 nM	440 nM	> 10000 nM
O=C(NO)C1C2CCOC2CCN1S(=O)(=O)c1ccc(Oc2ccc(F)cc2)cc1 (stereo not drawn) [Example 11, 5-[4-(4-fluorophenoxy)benzenesulfonyl]octahydrofuro[3,2-c]pyridine-4-(N-hydroxy)-carboxamide]	3 nM	2 nM	34 nM
O=C(NO)[C@H]1[C@H]2CCO[C@H]2CCN1S(=O)(=O)c1ccc(Oc2ccc(F)cc2)cc1 [Example 12]	1.3 nM	0.8 nM	14 nM
O=C(NO)[C@@H]1[C@@H]2CCO[C@@H]2CCN1S(=O)(=O)c1ccc(Oc2ccc(F)cc2)cc1 [Example 13]	150 nM	47 nM	1500 nM
O=C(NO)C1C2CCOC2CCN1S(=O)(=O)c1ccc(Oc2ccc(Cl)cc2)cc1 (stereo not drawn) [Example 18, 5-[4-(4-chlorophenoxy)benzenesulfonyl]octahydrofuro[3,2-c]pyridine-4-(N-hydroxy)-carboxamide]	2 nM	2 nM	27 nM
N#Cc1ccc(Oc2ccc(S(=O)(=O)N3CC[C@@H]4OCC[C@@H]4[C@@H]3C(=O)NO)cc2)cc1 [Example 21]	8 nM	1 nM	17 nM
CS(=O)(=O)c1ccc(Oc2ccc(S(=O)(=O)N3CC[C@@H]4OCC[C@@H]4[C@@H]3C(=O)NO)cc2)cc1 [Example 23]	5 nM	1 nM	15 nM
